Results on one molecule are retold here after EP3219329A1, “COMBINATIONS OF COPANLISIB” (Bayer Pharma Aktiengesellschaft, priority 2016, dated 2017).

This series concerns primary (PDX) human lymphoma model LY2298. Kind of series: In vivo B cell lymphoma xenograft model (PDX). An excerpt:
Anti-tumor activity of cpd. B has been analyzed in murine xenograft models. For that purpose tumor fragments from stock mice inoculated with primary human lymphoma tissue were harvested and used for inoculation into female NOD/SCID mice. Each mouse was inoculated subcutaneously at the right flank with primary (PDX) human lymphoma model LY2298 fragment (P7, 2-4 mm in diameter) for tumor development. The treatment was started when the average tumor size reached about 158 mm^3. Mice were allocated randomly into experimental groups according to their tumor sizes, 10 mice per group. The day was denoted as day 0. Treatments were administrated to tumor-bearing mice from day 1 through day 34. Treatment groups were: vehicle control, cpd. B monotherapy, cpd. A monotherapy and combination of cpd. B and cpd A (Table C). Body weights were determined twice per week. Changes in body weight were depicted as treatment related toxicities (>10% stop treatment, >20% termination). Tumor sizes were measured twice weekly in two dimensions using a caliper, and the volume is expressed in mm^3 using the formula: V = 0.5 a x b^2, where a and b are the long and short diameters of the tumor, respectively. The T/C value is an indicator of tumor response to treatment and commonly used as anti-tumor activity endpoint. T and C are the mean tumor volume of the treated and control groups, respectively. Statistical analysis of difference in tumor volume among the groups was evaluated using one-way ANOVA followed by pairweise comparison procedures (Dunett method). P < 0.05 was considered to be statistically significant.
B in monotherapy and combination therapy with cpd. A during treatment of human LY2298 ABC-DLBCL tumors. Cpd. B has been applied orally upon a dose of 20 mg/kg once daily. Cpd. A was applied intraveneously for 2 days followd by a 5 day treatment break upon a dose of 14 mg/kg. Cpd. […] Cpd. […] TABLE C: Anti-Tumor activity of cpd. B in monotherapy and combination with cpd. A in LY2298 PDX model in NOD/SCID mice.

For `COc1c(OCCCN2CCOCC2)ccc2c1N=C(NC(=O)c1cnc(N)nc1)N1CCN=C21.Cl.Cl` [cpd. A, 2-amino-N-[7-methoxy-8-(3-morpholin-4-ylpropoxy)-2,3-dihydroimid-azo[1,2-c]quinazolin-5-yl]pyrimidine-5-carboxamide dihydrochloride], the “Max. body weight loss (%)” value (LY2298 PDX in NOD/SCID mice, cpd. B 20 mg/kg QD p.o., cpd. A 14 mg/kg QD 2on/5off i.v., maximum mean loss as percent of starting weight) is listed as -5%. Besides, the “T/C Volume (at day 20)” value (LY2298 PDX in NOD/SCID mice, cpd. B 20 mg/kg QD p.o., cpd. A 14 mg/kg QD 2on/5off i.v., mean tumor volume treated/control, * P<0.05 vs. Vehicle) is recorded as 0.22*. Besides, the “Response (at termination)” value (LY2298 PDX in NOD/SCID mice, cpd. B 20 mg/kg QD p.o., cpd. A 14 mg/kg QD 2on/5off i.v., number of tumors per response class, 10 mice per group) is on record as 7x PD, 1x SD, 1x PR, 1x CR. In addition, the anti-tumor activity entry (human LY2298 ABC-DLBCL tumors, cpd. B 20 mg/kg once daily orally, cpd. A 14 mg/kg i.v. 2 days on, 5 days break, result in words) was “initially a strong anti-tumor activity but after 20 treatment days a clear tumor relapse”.
